Experimental data: the NIST ThermoML archive (doi:10.1016/j.tca.2008.12.007)
± gives the expanded uncertainty stated by the source.

Test: xn = mol fraction of the nth substance listed
Settings: 101 kPa, Liquid, Vibrating tube method

C1CCCNCC1 [azacycloheptane] + O
mass density [kg/m3]
Settings | 313.15 K | 318.15 K | 323.15 K | 333.15 K | 343.15 K | 348.15 K | 353.15 K
x2 = 0.0199 | – | 860.37 ± 0.29 | 855.9 ± 0.3 | 846.92 ± 0.3 | 837.91 ± 0.3 | 833.38 ± 0.3 | 828.84 ± 0.3
x2 = 0.0395 | – | 861.39 ± 0.29 | 856.9 ± 0.29 | 847.9 ± 0.29 | 838.84 ± 0.29 | 834.3 ± 0.29 | 829.73 ± 0.29
x2 = 0.0821 | – | 863.99 ± 0.27 | 859.48 ± 0.28 | 850.41 ± 0.28 | 841.28 ± 0.28 | 836.69 ± 0.28 | 832.07 ± 0.28
x2 = 0.1198 | – | 866.23 ± 0.26 | 861.7 ± 0.26 | 852.59 ± 0.26 | 843.4 ± 0.27 | 838.79 ± 0.27 | 834.14 ± 0.27
x2 = 0.1594 | – | 868.63 ± 0.25 | 864.08 ± 0.25 | 854.93 ± 0.25 | 845.7 ± 0.25 | 841.06 ± 0.26 | 836.38 ± 0.26
x2 = 0.1994 | – | 871.37 ± 0.24 | 866.81 ± 0.24 | 857.62 ± 0.24 | 848.34 ± 0.24 | 843.67 ± 0.24 | 838.95 ± 0.25
x2 = 0.2498 | – | 874.79 ± 0.22 | 870.21 ± 0.23 | 860.98 ± 0.23 | 851.65 ± 0.23 | 846.94 ± 0.23 | 842.2 ± 0.23
x2 = 0.3 | 882.83 ± 0.21 | 878.26 ± 0.21 | 873.67 ± 0.21 | 864.4 ± 0.21 | 855.03 ± 0.22 | 850.31 ± 0.22 | 845.54 ± 0.22
x2 = 0.3499 | 886.76 ± 0.2 | 882.18 ± 0.2 | 877.58 ± 0.2 | 868.28 ± 0.2 | 858.87 ± 0.21 | 854.12 ± 0.21 | 849.32 ± 0.21
x2 = 0.4 | 890.72 ± 0.19 | 886.14 ± 0.19 | 881.52 ± 0.19 | 872.21 ± 0.19 | 862.76 ± 0.19 | 857.99 ± 0.2 | 853.18 ± 0.2
x2 = 0.4529 | 895.39 ± 0.17 | 890.8 ± 0.18 | 886.19 ± 0.18 | 876.87 ± 0.18 | 867.39 ± 0.18 | 862.6 ± 0.18 | 857.76 ± 0.19
x2 = 0.5008 | 899.86 ± 0.15 | 895.29 ± 0.16 | 890.68 ± 0.16 | 881.36 ± 0.16 | 871.87 ± 0.16 | 867.08 ± 0.17 | 862.24 ± 0.17
x2 = 0.5041 | 899.86 ± 0.15 | 895.28 ± 0.15 | 890.68 ± 0.16 | 881.35 ± 0.16 | 871.87 ± 0.16 | 867.07 ± 0.17 | 862.22 ± 0.17
x2 = 0.5508 | 904.48 ± 0.15 | 899.93 ± 0.16 | 895.33 ± 0.16 | 886.03 ± 0.16 | 876.55 ± 0.16 | 871.76 ± 0.17 | 866.92 ± 0.17
x2 = 0.5992 | 909.37 ± 0.15 | 904.85 ± 0.15 | 900.28 ± 0.15 | 891.02 ± 0.15 | 881.58 ± 0.16 | 876.78 ± 0.16 | 871.95 ± 0.16
x2 = 0.65 | 915.05 ± 0.14 | 910.58 ± 0.14 | 906.06 ± 0.14 | 896.87 ± 0.15 | 887.5 ± 0.15 | 882.74 ± 0.15 | 877.92 ± 0.16
x2 = 0.699 | 920.96 ± 0.13 | 916.55 ± 0.14 | 912.1 ± 0.14 | 903.03 ± 0.14 | 893.76 ± 0.15 | 889.04 ± 0.15 | 884.27 ± 0.15
x2 = 0.7496 | 927.77 ± 0.13 | 923.47 ± 0.14 | 919.11 ± 0.14 | 910.24 ± 0.14 | 901.13 ± 0.15 | 896.49 ± 0.15 | 891.79 ± 0.15
x2 = 0.7994 | 935.59 ± 0.14 | 931.44 ± 0.14 | 927.23 ± 0.14 | 918.61 ± 0.15 | 909.74 ± 0.15 | 905.21 ± 0.15 | 900.62 ± 0.16
x2 = 0.8398 | 942.92 ± 0.15 | 938.93 ± 0.15 | 934.88 ± 0.15 | 926.57 ± 0.16 | 917.97 ± 0.17 | 913.57 ± 0.17 | 909.09 ± 0.17
x2 = 0.8799 | 951.63 ± 0.17 | 947.87 ± 0.17 | 944.03 ± 0.17 | 936.13 ± 0.18 | 927.91 ± 0.21 | 923.42 ± 0.2 | 918.78 ± 0.21
x2 = 0.92 | 962.53 ± 0.2 | 959.11 ± 0.2 | 955.59 ± 0.21 | 948.28 ± 0.22 | 942.9 ± 0.24 | 938.07 ± 0.25 | 933.73 ± 0.27
x2 = 0.9599 | 976.48 ± 0.22 | 973.55 ± 0.23 | 970.5 ± 0.24 | 964.06 ± 0.25 | 958.32 ± 0.25 | 954.48 ± 0.27 | –
x2 = 0.96 | 976.54 ± 0.26 | 973.61 ± 0.27 | 970.56 ± 0.28 | 964.12 ± 0.28 | 958.4 ± 0.33 | 954.96 ± 0.27 | –
x2 = 0.9699 | 980.66 ± 0.26 | 977.9 ± 0.27 | 975.01 ± 0.28 | 968.88 ± 0.3 | 963.25 ± 0.29 | – | –
x2 = 0.98 | 985.06 ± 0.26 | 982.5 ± 0.28 | 979.8 ± 0.29 | 974.02 ± 0.3 | 967.74 ± 0.27 | 964.39 ± 0.29 | 961.1 ± 0.28
